Tests used:
[1] = Dynamic PET/MR scan, brain uptake, baseline; format: in vivo
Description: For the time of the experiments, female CD-1 mice (n = 6; 8–15 weeks; 29–43 g) were kept in a dedicated climatic chamber with free access to water and food under a 12:12 h dark:light cycle at a constant temperature (24 °C). The animals were anaesthetized (Anaesthesia Unit U-410, agntho’s, Lidingö, Sweden) with isoflurane (2.0%, 300 mL/min) delivered in a 60% oxygen/40% air mixture (Gas Blender 100 Series, MCQ instruments, Rome, Italy) and their body temperature maintained at 37 °C with a thermal bed system. For baseline studies [^18F]BA3 was injected into the tail vein (n = 2; 6.0 ± 0.6 MBq in 150 µL isotonic saline; 9.2 ± 0.7 nmol/kg; Am: 21 GBq/μmol, EOS) followed by a dynamic 60 min PET/MR scan (Mediso nanoScan®, Budapest, Hungary). Permeability-glycoprotein efflux transporter studies consisted in pre-treatment via i.v. injection of cyclosporine A (50 mg/kg in NaCl/DMSO/kolliphor, 7:1:2, v/v; n = 2) or of vehicle (NaCl/DMSO/kolliphor, 7:1:2, v/v; n = 2) 30 min prior to [^18F]BA3 (6.0 ± 0.9 MBq; 4.9 ± 0.7 nmol/kg; Am: 32–37 GBq/μmol, EOS). Each PET image was corrected for random coincidences, dead time, scatter and attenuation (AC), based on a whole body (WB) MR scan. The reconstruction parameters for the list mode data were 3D-ordered subset expectation maximization (OSEM), 4 iterations, 6 subsets, energy window: 400–600 keV, coincidence mode: 1–5, ring difference: 81. The mice were positioned prone in a special mouse bed (heated up to 37 °C), with the head fixed to a mouth piece for the anaesthetic gas supply with isoflurane in 40% air and 60% oxygen. The PET data were collected by a continuous WB scan during the entire investigation. Following the 60 min PET scan a T1 weighted WB gradient echo sequence (TR/TE: 20/6.4 ms, NEX: 1, FA: 25, FOV: 64 × 64 mm, Matrix: 128 × 128, STh: 0.5 mm) was performed for AC and anatomical orientation. […]. The respective brain regions were identified using the mouse brain atlas template Ma-Benveniste-Mirrione-FDG. The activity data are expressed as mean SUV of the overall ROI.

[2] = molecular target: human recombinant HDAC3/NcoR2 (Homo sapiens, UniProt O15379); test: Inhibition assay HDAC3 (fluorogenic substrate ZMAL); format: biochemical; conditions: HDAC1 over HDAC3, from IC50 values
Description: In vitro inhibitory activities against HDAC1−3 and HDAC6 were measured as previously published with minor modifications. […] Subsequently, 50 µL trypsin solution (0.4 mg/mL trypsin in buffer: 50 mM Tris−HCl, pH = 8.0, 100 mM NaCl) was added, followed by additional 30 min of incubation at 37 °C. […] All compounds were tested at least twice in duplicates.

[3] = Lipophilicity logD7.4, shake-flask method n-octanol/PBS; format: physicochemical; conditions: n-octanol/PBS pH 7.4, room temperature, n = 8
Description: Radiochemical stability of [^18F]BA3 was investigated in 0.9% NaCl solution (containing 10% EtOH) and in n-octanol at room temperature for 2 h. Samples were analysed by radio-RP-HPLC (see quality control). The LogD7.4 value of [^18F]BA3 was experimentally determined in n-octanol/phosphate-buffered saline (PBS, pH = 7.4) at room temperature by the shake-flask method as described previously. Briefly, small tracer amounts (~800 kBq) were added to a mixture of 3 mL n-octanol and 3 mL PBS. After shaking for 20 min, the samples were centrifuged (10,000 rpm, 5 min) and 1 mL aliquots of the organic as well as aqueous layer were taken and measured in a gamma counter (1480 WIZARD, Perkin Elmer, Turku, Finland). Another 1 mL aliquot of the organic layer was mixed with 2 mL n-octanol and 3 mL PBS and subjected to the same procedure until constant partition coefficient values had been obtained. The measurement was performed twice in quadruplicate.

[4] = In vivo metabolism (radio-RP-HPLC and radio-MLC of plasma, brain, urine); parameters: species or system CD-1 mice; conditions: 30 min p.i.
Description: The radiotracer [^18F]BA3 (~30 MBq in 200 µL isotonic saline) was administered via the tail vein in non-anesthetized female CD-1 mice (n = 2). At 30 min p.i., the animals were anesthetized by isoflurane inhalation and blood was sampled from the retro-orbital plexus. After cervical dislocation, urine was obtained and the brain was isolated. Plasma was obtained by centrifugation of the blood sample (8000× g, 2 min), and the brain was homogenized in ~1 mL distilled water on ice using a glass/PTFE Potter Homogenizer (Potter S Homogenizer, B. Braun Melsungen AG, Melsungen, Germany).
Protein precipitation was performed by addition of an ice-cold MeCN/H2O mixture (9:1, v/v) in a ratio of 4:1 (v/v) of organic solvent to plasma or brain homogenate, respectively. The samples were vortexed for 3 min, equilibrated on ice for 3 min, and centrifuged for 10 min at 10,000 rpm. The precipitates were washed with 100 μL of the solvent mixture and subjected to the same procedure. The combined supernatants were concentrated at 70 °C under argon flow to a final volume of approximately 100 μL and analysed by analytical radio-RP-HPLC with a gradient system (see quality control section). The peak corresponding to the radiotracer in the radio-chromatogram was identified by co-injecting the sample with the reference compound BA3. To determine the percentage of activity in the supernatants compared with total activity, aliquots of each step as well as the precipitates were quantified by an automated gamma counter (1480 WIZARD, Perkin Elmer, Turku, Finland). For plasma and brain samples recoveries of 97% and 95%, respectively, of total activity were obtained.
For the preparation of the MLC samples, 20 µL of mouse plasma was dissolved in 200 µL of an aqueous 200 mM sodium dodecyl sulfate (SDSaq) solution and injected into the MLC system. For brain samples, 400 µL brain homogenate was dissolved in 800 µL 200 mM SDSaq, heated for 5 min at 70 °C and centrifuged for 5 min at 10,000 rpm. The MLC system was built up as earlier described. Separations were performed by using a Reprosil-Pur C18-AQ column (250 × 4.6 mm, 10 µm + 10 mm pre-column) and an eluent mixture of EtOH/100 mM SDSaq/25 mM (NH4)2HPO4 in gradient mode (0–10 min at 100% 100 mM SDSaq, 10–15 min up to 10% EtOH, 15–20 min at 10% EtOH, 20–21 min up to 100% 100 mM SDSaq; 21–30 min at 100% 100 mM SDSaq) at a flow rate of 1.0 mL/min.

[5] = radio-RP-HPLC, individual values of 2 mice

human recombinant HDAC3/NcoR2, sequence (O15379 whole entry): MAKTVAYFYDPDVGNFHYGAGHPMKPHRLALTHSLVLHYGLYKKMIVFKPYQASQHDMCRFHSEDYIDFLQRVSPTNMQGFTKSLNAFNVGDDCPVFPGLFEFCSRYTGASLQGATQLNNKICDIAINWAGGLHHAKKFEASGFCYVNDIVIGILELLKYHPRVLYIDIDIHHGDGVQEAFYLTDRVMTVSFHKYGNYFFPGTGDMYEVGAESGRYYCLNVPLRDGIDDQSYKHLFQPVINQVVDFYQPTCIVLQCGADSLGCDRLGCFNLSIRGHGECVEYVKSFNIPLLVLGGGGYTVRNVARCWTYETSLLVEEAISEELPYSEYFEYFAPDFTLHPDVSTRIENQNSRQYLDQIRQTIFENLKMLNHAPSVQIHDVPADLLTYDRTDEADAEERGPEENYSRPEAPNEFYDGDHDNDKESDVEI
human recombinant HDAC3/NcoR2, sequence (Q9Y618 395-489 partner limits assumed): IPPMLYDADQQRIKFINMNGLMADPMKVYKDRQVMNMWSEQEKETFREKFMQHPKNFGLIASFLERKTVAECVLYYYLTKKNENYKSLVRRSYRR

## CC([18F])C(=O)NCc1ccc(C(=O)Nc2cc(-c3ccsc3)ccc2N)cc1 (stereo not drawn) [[^18F]BA3]
[1]; at 0.8 min, i.v.
  brain peak standardized uptake value: ~ 0.16 SUV
[1]; at 15 min, i.v.
  brain uptake plateau: ~ 0.22 SUV
[1]; at 60 min after i.v. administration
  brain uptake after washout: ~ 0.16 SUV
[2]
  specificity ratio (HDAC1/HDAC3): > 230
[3]
  logD: 1.75 ± 0.16
[4]; radio-MLC, mean, n = 2
  intact radiotracer, share of total activity in brain: ~24%
  intact radiotracer, share of total activity in plasma: about 6%
[4]; radio-RP-HPLC and radio-MLC
  intact radiotracer in urine: not detected
[4]; [5]
  Brain [%] of activity: 20 / 23
  Plasma [%] of activity: 3 / 7
[4]; radio-RP-HPLC, mean, n = 2
  share of total activity in brain: 21%
  share of total activity in plasma: about 5%

Source: publication PMC8950173 (Pharmaceuticals, 2022)
